Experiment [1] deals with human acute myeloid leukemia cell line MOLM-13. In words: Cell growth test (Cell Titer Glo) MOLM-13. The note with it: 3 to 5 days. The format is cell-based. An excerpt: (§1) The human undifferentiated thymoma cell line Ty-82 (JCRB), the human acute myeloid leukemia cell lines MV4-11 (ATCC), MOLM-13 (ATCC) and RS4-11 (ATCC), the human lymphoma cell line Raji (JCRB), the human cervical epidermoid carcinoma cell line Hela (JCRB), the human lung adenocarcinoma cell line A549 (ATCC), the human colon cancer cell lines DLD1 (DS Pharma) and HCT116 (DS Pharma), and the human pancreatic cancer cell line MIAPACA-2 (ATCC) were used to carry out a cell growth test.
Ty-82, MV4-11, MOLM-13, RS4-11, Raji and DLD1 were each seeded in a well plate, in which Roswell Park Memorial Institute (RPMI)-1640 medium supplemented with penicillin/streptomycin and fetal bovine serum (FBS) with a final concentration of 10% was placed. Hela was seeded in Dulbecco's Modified Eagle's medium (DMEM) supplemented with penicillin/streptomycin and FBS with a final concentration of 10%. A549 and MIAPACA-2 were each seeded in a well plate, in which Minimum Essential Medium (MEM) supplemented with penicillin/streptomycin and FBS with a final concentration of 10% was placed. HCT116 was seeded in a well plate, in which McCoy's 5A medium supplemented with penicillin/streptomycin and FBS with a final concentration of 10% was placed.
(§2) Thereafter, a medium containing a test compound serially diluted with DMSO, or DMSO, was added to each well of the plate, in which the cells had been seeded, and the obtained mixture was then cultured under conditions of 37° C. and 5% CO2 for 3 to 5 days. Cell Titer Glo reaction solution (Promega) was added to the culture, and the amount of luminescence was then measured using Envision plate reader (PerkinElmer). Since the amount of luminescence is in proportion to the concentration of adenosine triphosphate (ATP) in cells, the amount of luminescence was used as an indicator of the number of living cells. The growth inhibition percentage of the test compound in each concentration was calculated according to the following equation. Growth inhibition percentage (%)=(amount of luminescence in test compound−added well)/(amount of luminescence in DMSO−added well)×100
The growth inhibition percentage of the test compound in each concentration was plotted by performing a non-linear regression analysis [(log (inhibitor) vs. response—Variable slope (four parameters)], using Graphpad prism 5, and a 50% growth inhibitory concentration [GI50 (nmol/L)] was then calculated.

The test system of experiment [2] is human acute myeloid leukemia cell line RS4-11. In words: Cell growth test (Cell Titer Glo) RS4-11. The format is cell-based. The note with it: RS4-11, Acute myeloid leukemia, 3 to 5 days.
Source text: as §1
(§3) Ty-82, MV4-11, MOLM-13, RS4-11, Raji and DLD1 were each seeded in a well plate, in which Roswell Park Memorial Institute (RPMI)-1640 medium supplemented with penicillin/streptomycin and fetal bovine serum (FBS) with a final concentration of 10% was placed. Hela was seeded in Dulbecco's Modified Eagle's medium (DMEM) supplemented with penicillin/streptomycin and FBS with a final concentration of 10%. A549 and MIAPACA-2 were each seeded in a well plate, in which Minimum Essential Medium (MEM) supplemented with penicillin/streptomycin and FBS with a final concentration of 10% was placed. […]
as §2, with “well)×100 […]” for “well)×100”
(ATP-based viability assays read luminescence as a measure of living cells.)

Experiment [3] deals with human colon cancer cell line DLD1. In words: Cell growth test (Cell Titer Glo) DLD1. The format is cell-based. The note with it: DLD-1, 3 to 5 days.
Source text: as §1, §3
as §2, with “well)×100 […]” for “well)×100”

Experiment [4] deals with human lymphoma cell line Raji. In words: Cell growth test (Cell Titer Glo) Raji. The format is cell-based. The note with it: 3 to 5 days.
Source text: as §1, §3
as §2, with “well)×100 […]” for “well)×100”

Experiment [5] has as its target T1, BRD2 BD1 (Homo sapiens, UniProt P25440).
T1 construct: BRD2 BD1, BRD3 BD1 and BRD4 BD1 (Cisbio); purchased Cisbio
In words: Binding assay, BRD2 BD1 to acetylated histone H4 Peptide-Biotin (EPIgeneous Binding Domain Kit A). The note with it: for inhibition at 0.3 µM: test compound at 300 nmol/L, read-out: Binding inhibition percentage BRD2 BD1. The procedure, abridged: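 HTRF competition: bromodomain protein (added at 20 nmol/L) and biotinylated tetra-acetyl H4(1-25) peptide (added at 25 nmol/L) were incubated with compound, streptavidin-d2 and anti-GST Eu cryptate for 20 h at room temperature. Inhibition came from the 665/620 nm ratio relative to DMSO; IC50 by four-parameter fit; some compounds were tested only at 300 nmol/L final.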

Experiment [6] relates to c-Myc protein. In words: Expression of c-Myc protein in Ty-82 cells, Western blotting. The note with it: 100 nmol/L, 24 hours. The format is cell-based, human. As for the experimental part:
It has been known that the antitumor action of a bromodomain inhibitor is associated with a c-Myc protein. Please refer to, for example, Non-Patent Document 3: Delmore J E et al., Cell, Vol. 146, pp. 904 to 917, 2011. With reference to the method described in Non-Patent Document 3, the ability of the compound of the present example to inhibit the expression of a c-Myc protein in cancer cells was evaluated according to Western blotting.
The human undifferentiated thymoma cell line Ty-82 (JCRB) used in the evaluation was seeded in a 6-well plate, in which an RPMI-1640 medium supplemented with penicillin/streptomycin and FBS with a final concentration of 10% was placed. A medium containing a test compound serially diluted with dimethyl sulfoxide (DMSO), or DMSO, was added to each well of the 6-well plate in which the cells had been seeded, and the obtained mixture was then cultured under conditions of 37° C. and 5% CO2 for 24 hours. Thereafter, the cells were recovered, and were then washed with PBS. After that, Lysis Buffer (10-fold diluted Cell Lysis Buffer (10×) (CST Japan), to which Halt Protease and Phosphatase Inhibitor Cocktail (Thermofisher Scientific) were added) was added to the resulting cells. The above-described cell suspension was subjected to an ultrasonic treatment to disintegrate the cells, and was then centrifuged to recover a supernatant. Sample buffer was added thereto, and the obtained mixture was then heated at 95° C. for 5 minutes.
A sample prepared from the above-described supernatant was loaded at a protein mass of 10 μg/lane on XV PANTERA GEL 7.5%-15% (D.R.C), and was then subjected to electrophoresis. The electrophoresed protein was transcribed on a transcription membrane, and was then inoculated with Anti-Myc antibody (CST, Catalog No. 9402) and then with IRDye® 680LT Donkey anti-Rabbit IgG (H+L) (LI-COR). Using Odessey (LI-COR), the fluorescence intensity at an excitation wavelength of 700 nm was measured, and the expression level of the c-Myc protein was then quantified.
Background: Immunoblotting shows a protein as a band on a membrane.

T1 sequence (P25440 74-180 limits assumed): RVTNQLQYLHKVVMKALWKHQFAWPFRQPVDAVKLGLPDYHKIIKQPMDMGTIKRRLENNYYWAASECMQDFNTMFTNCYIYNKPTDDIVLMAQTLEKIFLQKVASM

Take `CCn1c(=O)cc(C2CCN(C)CC2)c2cc(C(=O)N(C)c3ccc(C)cc3)ccc21` [Example 14, 1-Ethyl-N-methyl-N-(4-methylphenyl)-4-(1-methylpiperidin-4-yl)-2-oxo-1,2-dihydroquinoline-6-carboxamide]: the GI50 (usually the concentration giving 50% growth inhibition) worked out at 0.032 µM in experiment [1], 0.066 µM in experiment [2], 0.361 µM in experiment [3] and 0.06 µM in experiment [4]. In experiment [5], the IC50 (usually the midpoint of a concentration-inhibition curve) was 0.009 µM. In addition, the inhibition (commonly the percentage by which the read-out fell short of the control) at 0.3 µM in experiment [5] stood at 93%. The “expression level of c-Myc protein” value in experiment [6] is given as “significantly reduced”.
Regarding `CCn1c(=O)cc(C2CCN(C)CC2)c2cc(C(=O)N(C)c3ccc4c(c3)CCC4)ccc21` [Example 17, N-(2,3-dihydro-1H-inden-5-yl)-1-ethyl-N-methyl-4-(1-methylpiperidin-4-yl)-2-oxo-1,2-dihydroquinoline-6-carboxamide], the GI50 stood at 0.016 µM in experiment [1], 0.03 µM in experiment [2], 0.165 µM in experiment [3] and 0.023 µM in experiment [4]. The IC50 in experiment [5] was determined as 0.005 µM. Moreover, the inhibition at 0.3 µM in experiment [5] was found to be 93%. In experiment [6], the “expression level of c-Myc protein” value is recorded as “significantly reduced”.
On to `CCn1c(=O)cc(N2CCOCC2)c2cc(-n3c(-c4ccc(Cl)cc4)c[nH]c3=O)ccc21` [Example 245, 6-(5-(4-chlorophenyl)-2-oxo-2,3-dihydro-1H-imidazol-1-yl)-1-ethyl-4-(morpholin-4-yl)quinolin-2(1H)-one], for which the GI50 in experiment [1] came to 0.037 µM; in experiment [2], 0.085 µM; in experiment [3], 1.34 µM; in experiment [4], 0.097 µM. The IC50 in experiment [5] is 0.061 µM. In experiment [5], the inhibition at 0.3 µM was 79%. Also, the “expression level of c-Myc protein” value in experiment [6] is given as “significantly reduced”.

Values taken from patent US10987349B2, “Antitumor agent and bromodomain inhibitor” (FUJIFILM Corporation, priority 2016, dated 2021).
